Measurements as given in PMC3353973 (PLoS ONE, 2012).
Numbered stars: 1 amine (or outer) side, 2 acyl side, 3 side chain; on linkers, the order of the positions; unused ones are H or OH. Bridge positions count the residues as written; N and C are the ends. I, II: the chains in the order shown. X1 = CC(C)CCC[C@@H](C)[C@H]1CC[C@H]2[C@@H]3CC=C4C[C@@H](OCCN(CCNC(=O)CCOCCOCCOCCOCCNC(=O)CCCN5C(=O)CC([*:1])C5=O)CCNC(=O)CCOCCOCCOCCOCCNC(=O)CCCN5C(=O)CC([*:2])C5=O)CC[C@]4(C)[C@H]3CC[C@]12C

Conditions: hamster, in vivo

Substance: I: Ac-VALDPIDISIVLNKAKSDLEESKEWIRRSNGKLDSIGSGSGC-NH2 / II: Ac-VALDPIDISIVLNKAKSDLEESKEWIRRSNGKLDSIGSGSGC-NH2 (linker I:42-II:42 via X1) [HPIV-P4]
- Apparent toxicity in mock-infected animals: did not result in any apparent toxicity
